# Results: ChEMBL document CHEMBL2390918, “Cinnamides as selective small-molecule inhibitors of a cellular model of breast cancer stem cells” (Bioorg Med Chem Lett, 2013)
# Activity calls are given as the source filed them. No cut-off for these calls is given here.
# Legend:
# [1] = test system: HMLE; experiment: Cytotoxicity against human CSC-like HMLE cells expressing shRNA and epithelial cadherin at 20 uM after 70 to 74 hrs by Cell Titer Glo assay; format: functional, cell-based
# [2] = Cytotoxicity against human HMLE cells expressing shRNA and GFP after 70 to 74 hrs by Cell Titer Glo assay; format: cell-based
# [3] = Cytotoxicity against human CSC-like HMLE cells expressing shRNA and epithelial cadherin after 70 to 74 hrs by Cell Titer Glo assay; format: functional, cell-based
# [4] = Selectivity ratio of EC50 for human HMLE cells expressing shRNA and GFP to EC50 for human CSC-like HMLE cells expressing shRNA and epithelial cadherin; format: ADME, cell-based; conditions: read-out: Ratio EC50
# [5] = Cytotoxicity against human HMLE cells expressing shRNA and GFP at 20 uM after 70 to 74 hrs by Cell Titer Glo assay; format: cell-based
# [6] = Selectivity ratio of EC50 for human CSC-like HMLE cells expressing shRNA and epithelial cadherin to EC50 for human HMLE cells expressing shRNA and GFP; format: ADME, cell-based; conditions: read-out: Ratio EC50
# [7] = Displacement of [3H]Glyburide from ATP-sensitive potassium channel in hamster pancreatic HIT-T15 cells after 2 hrs; format: cell-based, Mesocricetus auratus
# [8] = test system: HIT-T15; experiment: Displacement of [3H]Glyburide from ATP-sensitive potassium channel in hamster pancreatic HIT-T15 cells at 10 uM after 2 hrs relative to control; format: cell-based; conditions: Mesocricetus auratus
# [9] = biological target: 5-hydroxytryptamine receptor 2B (Homo sapiens) (UniProt P41595); conditions: CHO-K1, 10 uM
# [10] = species on record: Rattus norvegicus; experiment: Displacement of [125I]Triiodothyronine from thyroid hormone receptor in Wistar rat liver at 10 uM after 18 hrs relative to control
# [11] = species on record: Oryctolagus cuniculus; experiment: Displacement of [3H]alpha, beta-methylene-ATP from purinergic P2X receptor in New Zealand albino rabbit urinary bladder at 10 uM after 30 mins relative to control
# [12] = Displacement of [3H]alpha, beta-methylene-ATP from purinergic P2X receptor in New Zealand albino rabbit urinary bladder after 30 mins; set-up: species or system Oryctolagus cuniculus
# [13] = Displacement of [3H]Batrachotoxin from sodium channel site 2 in Wistar rat brain after 60 mins
# [14] = species on record: Rattus norvegicus; conditions: Wistar, 10 uM
# [15] = biological target: Prostaglandin E2 receptor EP4 subtype (Homo sapiens) (UniProt P35408); experiment: Displacement of [3H]PGE2 from human recombinant prostanoid EP4 receptor in CHEM1 cells at 10 uM after 2 hrs relative to control; format: cell-based
# [16] = Displacement of [3H]GABA from GABA transporter in Wistar rat cerebral cortex after 20 mins; format: tissue-based
# [17] = species on record: Rattus norvegicus; experiment: Displacement of [3H]GABA from GABA transporter in Wistar rat cerebral cortex at 10 uM after 20 mins relative to control; format: tissue-based
# [18] = biological target: Sodium-dependent dopamine transporter (Homo sapiens) (UniProt Q01959); conditions: CHO-K1, 10 uM
# [19] = biological target: 5-hydroxytryptamine receptor 3A (Homo sapiens) (UniProt P46098); conditions: HEK293, 10 uM
# [20] = biological target: Platelet-activating factor receptor (Homo sapiens) (UniProt P25105); experiment: Displacement of [3H]PAF from platelet activating factor receptor in human platelets at 10 uM after 3 hrs relative to control
# [21] = biological target: 5-hydroxytryptamine receptor 1A (Homo sapiens) (UniProt P08908); experiment: Displacement of [3H]8-OH-DPAT from human recombinant 5HT1A receptor expressed in CHOK1 cells at 10 uM after 60 mins relative to control; format: cell-based; conditions: CHO-K1
# [22] = biological target: T1, Substance-P receptor (Homo sapiens, UniProt P25103); experiment: Displacement of [3H]Substance P from human recombinant substance P receptor expressed in CHO cells after 90 mins; format: cell-based
# [23] = biological target: T1, Substance-P receptor; experiment: Displacement of [3H]Substance P from human recombinant substance P receptor expressed in CHO cells at 10 uM after 90 mins relative to control; format: cell-based
# [24] = species on record: Rattus norvegicus; experiment: Displacement of [3H]Rolipram from rolipram binding site in Wistar rat brain at 10 uM after 60 mins relative to control
# [25] = Solubility in PBS at 100 uM after 24 hrs at pH 7.4 by UPLC-MS analysis; format: physicochemical
# T1 sequence (P25103 whole entry): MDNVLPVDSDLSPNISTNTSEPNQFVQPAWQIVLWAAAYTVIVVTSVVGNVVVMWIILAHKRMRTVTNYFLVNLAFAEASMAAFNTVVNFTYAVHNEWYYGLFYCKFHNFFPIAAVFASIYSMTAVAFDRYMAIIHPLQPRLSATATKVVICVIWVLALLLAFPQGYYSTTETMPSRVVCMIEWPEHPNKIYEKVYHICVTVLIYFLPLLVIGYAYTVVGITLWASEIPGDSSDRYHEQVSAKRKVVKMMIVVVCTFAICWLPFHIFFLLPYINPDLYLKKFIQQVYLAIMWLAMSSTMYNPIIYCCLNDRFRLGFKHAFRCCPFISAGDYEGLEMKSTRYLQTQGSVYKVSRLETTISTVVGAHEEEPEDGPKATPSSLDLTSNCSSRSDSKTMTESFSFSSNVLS
# Sequence of Platelet-activating factor receptor (Homo sapiens) (P25105 whole entry): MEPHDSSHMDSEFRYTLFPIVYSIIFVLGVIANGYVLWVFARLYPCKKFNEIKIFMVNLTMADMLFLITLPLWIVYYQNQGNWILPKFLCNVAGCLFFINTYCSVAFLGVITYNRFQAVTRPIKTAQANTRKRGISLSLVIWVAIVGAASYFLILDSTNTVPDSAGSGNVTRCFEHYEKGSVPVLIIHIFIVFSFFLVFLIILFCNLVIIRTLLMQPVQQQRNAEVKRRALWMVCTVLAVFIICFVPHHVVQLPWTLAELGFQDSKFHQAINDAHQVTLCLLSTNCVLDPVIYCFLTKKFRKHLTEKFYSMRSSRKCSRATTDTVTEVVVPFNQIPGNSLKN
# Sequence of 5-hydroxytryptamine receptor 3A (Homo sapiens) (P46098 whole entry): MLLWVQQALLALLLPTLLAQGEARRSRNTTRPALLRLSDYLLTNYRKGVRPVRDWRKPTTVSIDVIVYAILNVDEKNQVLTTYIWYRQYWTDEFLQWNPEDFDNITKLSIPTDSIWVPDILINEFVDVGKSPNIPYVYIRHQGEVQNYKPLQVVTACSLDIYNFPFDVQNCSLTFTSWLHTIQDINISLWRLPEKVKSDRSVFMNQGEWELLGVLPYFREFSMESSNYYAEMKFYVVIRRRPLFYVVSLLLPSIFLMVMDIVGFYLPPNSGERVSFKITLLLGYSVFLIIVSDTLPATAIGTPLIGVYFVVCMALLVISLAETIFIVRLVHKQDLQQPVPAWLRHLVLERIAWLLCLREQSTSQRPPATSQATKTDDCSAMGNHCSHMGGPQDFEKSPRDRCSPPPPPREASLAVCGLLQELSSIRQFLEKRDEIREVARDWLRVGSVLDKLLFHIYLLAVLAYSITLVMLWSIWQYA
# Sequence of 5-hydroxytryptamine receptor 1A (Homo sapiens) (P08908 whole entry): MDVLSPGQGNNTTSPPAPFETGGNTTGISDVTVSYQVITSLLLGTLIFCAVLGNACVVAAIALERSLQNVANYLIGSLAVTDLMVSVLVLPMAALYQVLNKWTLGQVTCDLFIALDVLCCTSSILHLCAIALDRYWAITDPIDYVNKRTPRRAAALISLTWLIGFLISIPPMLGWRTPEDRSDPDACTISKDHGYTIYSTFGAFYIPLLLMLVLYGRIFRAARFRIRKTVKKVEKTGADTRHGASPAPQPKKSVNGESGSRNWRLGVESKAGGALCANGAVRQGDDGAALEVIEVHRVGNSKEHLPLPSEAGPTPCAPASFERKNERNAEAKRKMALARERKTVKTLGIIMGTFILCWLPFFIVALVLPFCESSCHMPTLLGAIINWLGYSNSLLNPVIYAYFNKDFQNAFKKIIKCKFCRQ
# Sequence of Sodium-dependent dopamine transporter (Homo sapiens) (Q01959 whole entry): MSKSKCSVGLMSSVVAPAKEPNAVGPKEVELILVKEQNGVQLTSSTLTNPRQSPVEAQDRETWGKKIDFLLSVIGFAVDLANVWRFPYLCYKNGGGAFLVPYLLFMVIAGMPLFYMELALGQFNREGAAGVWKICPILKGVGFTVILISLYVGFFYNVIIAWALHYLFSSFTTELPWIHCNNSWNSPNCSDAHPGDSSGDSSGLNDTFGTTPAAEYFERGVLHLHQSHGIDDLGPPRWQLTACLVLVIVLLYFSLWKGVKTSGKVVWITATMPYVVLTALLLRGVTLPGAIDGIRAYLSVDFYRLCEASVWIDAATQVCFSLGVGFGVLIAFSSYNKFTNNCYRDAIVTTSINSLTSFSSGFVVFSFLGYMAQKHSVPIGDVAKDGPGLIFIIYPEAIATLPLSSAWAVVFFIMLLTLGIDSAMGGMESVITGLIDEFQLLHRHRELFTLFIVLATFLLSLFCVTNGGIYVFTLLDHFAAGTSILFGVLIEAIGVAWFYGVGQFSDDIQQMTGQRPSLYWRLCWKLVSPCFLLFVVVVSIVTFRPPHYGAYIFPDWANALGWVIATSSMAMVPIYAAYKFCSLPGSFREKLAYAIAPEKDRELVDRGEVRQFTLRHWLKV
# Sequence of Prostaglandin E2 receptor EP4 subtype (Homo sapiens) (P35408 whole entry): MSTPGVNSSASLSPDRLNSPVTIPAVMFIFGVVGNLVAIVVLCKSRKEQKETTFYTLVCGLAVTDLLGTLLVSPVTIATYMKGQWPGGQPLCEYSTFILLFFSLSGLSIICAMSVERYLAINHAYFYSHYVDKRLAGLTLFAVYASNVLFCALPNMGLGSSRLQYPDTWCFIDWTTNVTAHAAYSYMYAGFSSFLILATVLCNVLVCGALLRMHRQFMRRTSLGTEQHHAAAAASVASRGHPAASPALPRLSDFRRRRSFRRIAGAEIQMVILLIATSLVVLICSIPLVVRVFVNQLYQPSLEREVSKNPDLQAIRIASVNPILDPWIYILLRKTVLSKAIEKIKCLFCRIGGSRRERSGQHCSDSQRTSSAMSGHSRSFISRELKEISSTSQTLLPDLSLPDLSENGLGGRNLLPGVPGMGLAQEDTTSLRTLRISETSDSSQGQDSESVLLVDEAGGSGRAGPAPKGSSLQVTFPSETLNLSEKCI
# Sequence of 5-hydroxytryptamine receptor 2B (Homo sapiens) (P41595 whole entry): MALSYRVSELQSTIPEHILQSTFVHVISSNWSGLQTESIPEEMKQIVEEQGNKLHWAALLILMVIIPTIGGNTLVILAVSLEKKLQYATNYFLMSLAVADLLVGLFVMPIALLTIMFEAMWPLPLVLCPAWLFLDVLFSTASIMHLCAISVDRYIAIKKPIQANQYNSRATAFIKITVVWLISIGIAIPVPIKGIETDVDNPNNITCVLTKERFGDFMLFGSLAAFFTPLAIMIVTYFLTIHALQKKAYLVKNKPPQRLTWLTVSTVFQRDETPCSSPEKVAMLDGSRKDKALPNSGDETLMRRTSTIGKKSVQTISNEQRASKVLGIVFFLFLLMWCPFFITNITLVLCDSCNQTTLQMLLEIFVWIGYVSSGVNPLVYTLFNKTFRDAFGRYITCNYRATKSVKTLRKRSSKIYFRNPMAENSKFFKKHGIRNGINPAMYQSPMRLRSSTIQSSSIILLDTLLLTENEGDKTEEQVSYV
SMILES,Activity [1],EC50 [3] [µM],Activity [5],other results
CC(C)c1ccc(/C=C/C(=O)N(C)C2=NCCS2)cc1,inactive,–,–,EC50 [2]: 21.1 µM
O=C(/C=C/c1ccc(-c2ccccc2)cc1)NC1=NCCS1,–,0.65,–,selectivity ratio [4]: 53.1; EC50 [2]: 34.6 µM
CC(C)c1ccc(/C=C/C(=O)Nc2ncc[nH]2)cc1,inactive,–,–,EC50 [2]: 51.6 µM
O=C(/C=C/c1ccc(F)cc1)NC1=NCCS1,inactive,–,Non-toxic,–
Cc1ccccc1/C=C/C(=O)NC1=NCCS1,inactive,–,Non-toxic,–
CC(C)c1ccc(/C=C/C(=O)Nc2nncs2)cc1,–,9.97,–,selectivity ratio [6]: 0.73; EC50 [2]: 13.6 µM
CC(C)(C)c1ccc(/C=C/C(=O)NC2=NCCS2)cc1,inactive,–,–,EC50 [2]: 20.6 µM
CC(C)c1ccc(/C=C/C(=O)Nc2nccs2)cc1,–,7.26,–,selectivity ratio [6]: 2.05; EC50 [2]: 3.55 µM
O=C(/C=C/c1ccc(-c2cccnc2)cc1)NC1=NCCS1,–,3.85,–,selectivity ratio [4]: 1.47; EC50 [2]: 5.65 µM
CCN(CC)C(=O)/C=C/c1ccc(C(C)C)cc1,inactive,–,Non-toxic,–
CC(C)c1ccc(/C=C(\C#N)C(=O)NC2=NCCS2)cc1,inactive,–,Non-toxic,–
CC(C)c1ccc(/C=C/C(=O)Nc2ccccc2)cc1,–,3.28,–,selectivity ratio [6]: 0.95; EC50 [2]: 3.44 µM
O=C(/C=C/c1ccccc1Cl)NC1=NCCS1,–,35,Non-toxic,–
O=C(/C=C/c1cccc(Cl)c1)NC1=NCCS1,–,15,–,selectivity ratio [4]: 1.44; EC50 [2]: 21.5 µM
COc1cccc(/C=C/C(=O)NC2=NCCS2)c1,–,62.1,–,EC50 [2]: 96.2 µM
CC(C)c1ccc(C#CC(=O)NC2=NCCS2)cc1,inactive,–,Non-toxic,–
COc1ccc(Cl)cc1C(=O)NCCc1ccc(S(=O)(=O)NC(=O)NC2CCCCC2)cc1 [GLYBURIDE],–,–,–,IC50 [7]: 0.0057 µM; Ki [7]: 0.00065 µM; inhibition [8]: 10%
Cc1ccc(/C=C/C(=O)NC2=NCCS2)cc1,–,16,Non-toxic,–
CN(C)c1ccc(/C=C/C(=O)NC2=NCCS2)cc1,–,27.4,Non-toxic,–
O=C(/C=C/c1ccc(Cl)cc1)NC1=NCCS1,–,13.6,–,selectivity ratio [4]: 0.73; EC50 [2]: 9.97 µM
O=C(/C=C/c1ccccc1)NC1=NCCS1,inactive,–,Non-toxic,–
O=C(c1ccc(F)cc1)C1CCN(CCn2c(=O)[nH]c3ccccc3c2=O)CC1,–,–,–,inhibition [9]: 42%

SMILES,Activity [1],EC50 [3] [µM],Activity [5],other results
N[C@@H](Cc1cc(I)c(Oc2ccc(O)c(I)c2)c(I)c1)C(=O)O,–,–,–,inhibition [10]: 6%
COc1cc(/C=C/C(=O)NC2=NCCS2)cc(OC)c1OC,inactive,–,Non-toxic,–
CC(C)c1ccc(C2CC2C(=O)NC2=NCCS2)cc1 (stereo not drawn),inactive,–,Non-toxic,–
COc1cc(C(C)C)ccc1/C=C/C(=O)NC1=NCCS1,–,28.4,Non-toxic,–
COc1cc(OC(C)C)ccc1/C=C/C(=O)NC1=NCCS1,inactive,–,Non-toxic,–
O=C(/C=C/c1ccc(Cl)c(Cl)c1)NC1=NCCS1,inactive,–,Non-toxic,–
Nc1ncnc2c1ncn2[C@@H]1O[C@H](COP(=O)(O)CP(=O)(O)OP(=O)(O)O)[C@@H](O)[C@H]1O [DIPHOSPHOMETHYLPHOSPHONIC ACID ADENOSYL ESTER],–,–,–,inhibition [11]: 3%; IC50 [12]: 0.082 µM; Ki [12]: 0.018 µM
CC(C)c1ccc(/C=C\C(=O)NC2=NCCS2)cc1,inactive,–,Non-toxic,–
CC(C)c1ccc(CCC(=O)NC2=NCCS2)cc1,–,9.91,Non-toxic,–
COc1ccccc1/C=C/C(=O)NC1=NCCS1,inactive,–,–,EC50 [2]: 93.3 µM
CCCCOc1cc(C(=O)NCCN(CC)CC)c2ccccc2n1 [DIBUCAINE],–,–,–,IC50 [13]: 0.61 µM; Ki [13]: 0.55 µM; inhibition [14]: 10%
CCCCC[C@H](O)/C=C/[C@H]1[C@H](O)CC(=O)[C@@H]1C/C=C\CCCC(=O)O,–,–,–,inhibition [15]: 5%
O=C(O)C1=CCCN(CCON=C(c2ccccc2)c2ccccc2)C1,–,–,–,IC50 [16]: 0.2 µM; Ki [16]: 0.2 µM; inhibition [17]: -6%
C/C(=C\C(=O)NC1=NCCS1)c1ccc(C)cc1,inactive,–,Non-toxic,–
Fc1ccc(C(OCCN2CCN(CCCc3ccccc3)CC2)c2ccc(F)cc2)cc1,–,–,–,inhibition [18]: 5%
CN1[C@@H]2CC[C@H]1C[C@@H](OC(=O)c1cc(Cl)cc(Cl)c1)C2,–,–,–,inhibition [19]: 3%
C/C(=C\C(=O)NC1=NCCS1)c1ccc(CC(C)C)cc1,inactive,–,Non-toxic,–
COc1ccc(/C=C/C(=O)NC2=NCCS2)c(OC)c1,–,9.91,Non-toxic,–
N#Cc1cccc(/C=C/C(=O)NC2=NCCS2)c1,inactive,–,Non-toxic,–
CC(C)c1ccc(/C=C/C(=O)O)cc1,inactive,–,Non-toxic,–
CC(C)Cc1ccc(/C=C/C(=O)NC2=NCCS2)cc1,–,0.478,–,selectivity ratio [4]: 4.54; EC50 [2]: 2.17 µM
N#Cc1ccc(/C=C/C(=O)NC2=NCCS2)cc1,–,26.9,Non-toxic,–

SMILES,Activity [1],EC50 [3] [µM],Activity [5],other results
O=C(/C=C/c1ccc(C(F)(F)F)cc1)NC1=NCCS1,inactive,–,Non-toxic,–
COc1ccc(/C=C/C(=O)NC2=NCCS2)c(OC)c1OC,inactive,–,Non-toxic,–
O=C(/C=C/c1cc(Cl)ccc1Cl)NC1=NCCS1,inactive,–,Non-toxic,–
CC(C)c1ccc(/C=C/C(=O)NC2=NC(=O)CS2)cc1,–,27,–,selectivity ratio [6]: 2.03; EC50 [2]: 13.3 µM
CC(C)c1ccc(/C=C/C(=O)NC2CCCC2)cc1,–,123,–,selectivity ratio [6]: 2.07; EC50 [2]: 59.6 µM
CCCCCCCCCCCCCCCCOC[C@H](COP(=O)([O-])OCC[N+](C)(C)C)OC(C)=O,–,–,–,inhibition [20]: 6%
CCNC(=O)/C=C/c1ccc(C(C)C)cc1,inactive,–,Non-toxic,–
O=C(NC1=NCCS1)c1cc2ccccc2[nH]1,inactive,–,Non-toxic,–
Cc1cccc(/C=C/C(=O)NC2=NCCS2)c1,inactive,–,Non-toxic,–
CN1C[C@H](CNC(=O)OCc2ccccc2)C[C@@H]2c3cccc4c3c(cn4C)C[C@H]21,–,–,–,inhibition [21]: -8%
Ic1ccccc1N[C@@H]1C2CCN(CC2)[C@@H]1C(c1ccccc1)c1ccccc1,–,–,–,IC50 [22]: 0.0036 µM; Ki [22]: 0.0026 µM; inhibition [23]: 0%
COc1ccc(/C=C/C(=O)NC2=NCCS2)cc1OC,inactive,–,Non-toxic,–
CC(C)c1ccc(/C=C/C(=O)Nc2nccn2C)cc1,–,5.97,–,selectivity ratio [6]: 1.28; EC50 [2]: 4.65 µM
Cc1c(C(=O)NC2=NCCS2)oc2ccccc12,inactive,–,Non-toxic,–
O=C(/C=C/c1ccc(Cl)cc1Cl)NC1=NCCS1,inactive,–,Non-toxic,–
N#Cc1ccccc1/C=C/C(=O)NC1=NCCS1,inactive,–,Non-toxic,–
COc1ccc(C2CNC(=O)C2)cc1OC1CCCC1 (stereo not drawn),–,–,–,inhibition [24]: 16%
Cn1c(C(=O)NC2=NCCS2)cc2ccccc21,inactive,–,Non-toxic,–
COc1ccc(OC)c(/C=C/C(=O)NC2=NCCS2)c1,inactive,–,Non-toxic,–
CC(C)c1ccc(/C=C/C(=O)NC2=NCCS2)cc1,–,50.6,–,"selectivity ratio [6]: 21.5; solubility at 24 h, 100 µM [25]: < 1 µM; EC50 [2]: 2.35 µM"
